Target: T1, human recombinant ALDH3A1 (Homo sapiens, UniProt P30838)
T1 construct: 6xHis (C); made in house; host or cells: E. coli, with chaperone co-expression (pG-KJE8 plasmid)
T1 sequence (P30838 1-453): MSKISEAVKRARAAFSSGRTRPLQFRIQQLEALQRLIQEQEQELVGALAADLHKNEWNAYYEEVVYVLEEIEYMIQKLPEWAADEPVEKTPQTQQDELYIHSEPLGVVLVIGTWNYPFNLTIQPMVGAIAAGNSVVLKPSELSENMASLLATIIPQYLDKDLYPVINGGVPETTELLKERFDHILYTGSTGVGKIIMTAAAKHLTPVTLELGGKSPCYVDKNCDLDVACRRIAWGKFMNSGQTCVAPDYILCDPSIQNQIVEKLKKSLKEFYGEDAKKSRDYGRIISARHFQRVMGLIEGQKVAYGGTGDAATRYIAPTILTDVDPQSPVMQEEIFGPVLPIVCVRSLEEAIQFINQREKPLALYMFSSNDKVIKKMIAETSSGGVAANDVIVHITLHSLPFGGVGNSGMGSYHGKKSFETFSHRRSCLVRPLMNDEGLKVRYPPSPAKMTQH
Assay: ALDH3A1 enzymatic assay, benzaldehyde oxidation
Type: biochemical
Details: for Enzymatic activity, % of control (Mean%): 40 μM CB29; for Enzymatic activity, % of control (Mean%) / Enzymatic Activity, AVERAGE of triplicates: mean of n = 3
Procedure: The ability of ALDH3A1 to oxidize benzaldehyde in the presence of P1 was estimated by monitoring the production of NADH as described earlier with minor modifications ([Voulgaridou et al., 2013]). Human recombinant ALDH3A1 was combined with P1 and diluted in Milli-Q water, at 1:1,000. The final reaction was placed in a 0.5 mL quartz cuvette containing 50 mM Tris-HCl pH 8.5, 50 mM 2-Mercaptoethanol, 1.5 mM […], 20 nM ALDH3A1, 20 μM P1, and 1 mM Benzaldehyde. The reaction was initiated by the addition of the benzaldehyde substrate and was monitored at 340 nm for 5 min using a spectrophotometer (Libra S22, Biochrom Ltd, Cambridge, United Kingdom). In the case of CB29, the final reaction contained 40 μM CB29. Enzymatic activity was calculated as dOD/dT∗molarextinctioncoeiffcient∗pathcorrection∗enzyme^′sconcentrationinfinalreaction where, dT = minutes, molar extinction coefficient = 6220 M^-1/cm, path correction = 1 cm.
All experiments were conducted in triplicates and presented as % of the control’s enzymatic activity. As a control, the final reaction contained the respective Milli-Q water volume without P1 or CB29.
At least three independent experiments were performed for each condition tested. The values are expressed as the mean ± standard deviation (SD). Statistical analysis was performed with Graph Pad Prism software (version 9.4.1) (Graph Pad Inc., La Jolla, CA, United States). For all assays, statistical differences between groups were evaluated either by Student’s t-test or ANOVA, for multiple comparisons, followed by Dunnett’s or Tukey’s test. A level of p < 0.01 was considered statistically significant.

[1] = 20 μM P1 (n = 4) or 40 μM CB29 (n = 3)

Enzymatic activity, % of control, AVERAGE of experiments (20 μM P1 (4 experiments) or 40 μM CB29 (3 experiments), 1 mM benzaldehyde, 20 nM ALDH3A1, pH 8.5, 340 nm, 5 min): 52.9548%
25% Percentile, % of control activity [1]: 47.24
75% Percentile, % of control activity [1]: 56.68
Lower 95% CI of mean, % of control activity [1]: 40.48
Maximum, % of control activity [1]: 56.68
Mean, % of control activity [1]: 52.95
Median, % of control activity [1]: 54.95
Minimum, % of control activity [1]: 47.24
Upper 95% CI of mean, % of control activity [1]: 65.43
Enzymatic activity, % of control (Mean%) (CB29 Exp1, 1 mM benzaldehyde, 20 nM ALDH3A1, pH 8.5, 340 nm): 56.6779%
Enzymatic activity, % of control (Mean%) (CB29 Exp2, 1 mM benzaldehyde, 20 nM ALDH3A1, pH 8.5, 340 nm): 54.9455%
Enzymatic activity, % of control (Mean%) (CB29 Exp3, 1 mM benzaldehyde, 20 nM ALDH3A1, pH 8.5, 340 nm): 47.241%
Enzymatic Activity, AVERAGE of triplicates (CB29 Exp1, 40 μM): 7.722 µmol/min/mg
Enzymatic Activity, AVERAGE of triplicates (CB29 Exp2, 40 μM): 6.9085 µmol/min/mg
Enzymatic Activity, AVERAGE of triplicates (CB29 Exp3, 40 μM): 7.406 µmol/min/mg
95,00% CI of diff, control vs. compound (Dunnett's multiple comparisons, 20 μM P1 or 40 μM CB29): 37,23 to 56,86
Mean Diff, control vs. compound (Dunnett's multiple comparisons, 20 μM P1 or 40 μM CB29, % of control activity): 47.05
SMILES: CC(=O)Nc1ccc(Nc2ccc(S(C)(=O)=O)cc2[N+](=O)[O-])cc1 [CB29, reference compound]
